Assay [1] in a line: standard mouse writhing assay (inhibition of induced writhing). The format is in vivo. An excerpt: (§1) The analgesic activity of a number of compounds provided by this invention has been determined in the standard rat-tail jerk assay and the mouse writhing assay. The results in the mouse writhing assay are presented as the effective dose in mg./kg. of the tested compound required to inhibit induced writhing in the test animals by fifty percent (ED50). Results are presented in Column II for both subcutaneous (S.C.) and oral (p.o.) administration of the test compound recited in Column I.

Assay [2] is described as follows: standard rat-tail jerk assay (delay of response to heat stimulus). Format: in vivo. As to conditions: subcutaneous, heat sensation.
Excerpt: as §1
Column III presents the effects of the claimed compounds on rats subjected to a heat sensation. The compounds recited in column I were administered subcutaneously to the test animals. The test results are reported as the minimum effective dose (MED) of compound in mg./kg. needed to delay response to the pain stimulus by one second compared to control animals.

[3] abbreviates: oral, read-out: Mouse Writhing ED50 p.o. (dose required to inhibit induced writhing by fifty percent).
[4] abbreviates: sc, subcutaneous, read-out: Mouse Writhing ED50 s.c. (dose required to inhibit induced writhing by fifty percent).

Each structure is given as a SMILES string. Where two headings read alike, the source gives them in different places.

What is called ED50 is the dose at which the effect has come halfway, by size or by number of responders.

Consider `CC1CC(C)(c2cccc(O)c2)C(C)CN1C` (stereo not drawn) [1,2,4,5-Tetramethyl-4-(3-hydroxyphenyl)piperidine], for which the ED50 is 9.2 mg/kg in assay [1] (setting [3]) and 1.25 mg/kg in assay [1] (setting [4]). Further, in assay [2], the “Rat Tail Jerk MED 1 sec. (minimum effective dose to delay response to the pain stimulus by one second compared to control animals)” value is 1 mg/kg.

For the compound `COc1cccc(C2(C)CC(C)N(C)CC2C)c1` (stereo not drawn) [1,2,4,5-Tetramethyl-4-(3-methoxyphenyl)piperidine], the ED50 amounted to 16 mg/kg in assay [1] (setting [3]) and 19 mg/kg in assay [1] (setting [4]). For the same compound, the “Rat Tail Jerk MED 1 sec. (minimum effective dose to delay response to the pain stimulus by one second compared to control animals)” value in assay [2] was determined as 10 mg/kg.

On to `CCCC1(c2cccc(OC)c2)CC(C)N(C)CC1C` (stereo not drawn) [1,2,5-Trimethyl-4-n-propyl-4-(3-methoxyphenyl)-piperidine], for which the results for the ED50 in assay [1] (setting [3]) and in assay [1] (setting [4]) were 11.5 mg/kg and 4 mg/kg, respectively. Besides, in assay [2], the “Rat Tail Jerk MED 1 sec. (minimum effective dose to delay response to the pain stimulus by one second compared to control animals)” value is 2 mg/kg.

Turning to `CCCC1(c2cccc(O)c2)CC(C)N(C)CC1C` (stereo not drawn) [1,2,5-trimethyl-4-n-propyl-4-(3-hydroxyphenyl)piperidine], the results for the ED50 in assay [1] (setting [3]) and in assay [1] (setting [4]) were 16 mg/kg and 29 mg/kg, respectively. Moreover, the “Rat Tail Jerk MED 1 sec. (minimum effective dose to delay response to the pain stimulus by one second compared to control animals)” value in assay [2] turned out to be 20 mg/kg.

Turning to `CCOC(=O)C1(c2ccccc2)CCN(C)CC1` [Meperidine, meperidine, reference compound], the ED50 in assay [1] (setting [3]) was found to be 21 mg/kg; in assay [1] (setting [4]) it was 2.8 mg/kg. Moreover, the “Rat Tail Jerk MED 1 sec. (minimum effective dose to delay response to the pain stimulus by one second compared to control animals)” value in assay [2] worked out at 3.0 mg/kg.

These data come from patent US4228288A, “Certain substituted 3,4,5,6-tetrahydropyridinium salt intermediates” (Eli Lilly and Company, priority 1979, dated 1980).
